Results published in patent US11478416B2, “Ingredients for use in personal care compositions” (Croda, Inc., priority 2016, dated 2022).
“Also recorded” adds a separate entry of the source.

Experiment: Frizz control test, panel ranking of tresses at 75% RH
Conditions: from panel ranking
Protocol: The formulations H to M as set out in Table 4 were prepared. Each hair conditioner formulation was prepared by combining the Part A ingredients while mixing and heating to 75-80° C., and separately combining the Part B ingredients and heating to the same temperature. The Part A and Part B ingredients were then combined while mixing at temperature and allowed to cool to 40° C. Once at 40° C., the Part C ingredients were added and the pH adjusted to about 4.5±0.5 using lactic acid.
For each formulation H to M, 7 Brazilian curly hair tresses available from International Hair Importers Inc., NYC, were cut to 1.5 cm wide and 20 cm long.
The tresses were washed with a simple cleansing shampoo (SLES/Betaine shampoo) using a 1:10 w/w shampoo to hair ratio for 1 minute. The tresses were then rinsed with warm water for 1 minute or until free of foam. 3 g of the respective formulation was then massaged into the hair tresses for 1 minute. The treated tresses were left to sit for 20 minutes and then the formulations rinsed out of the hair for 45 seconds. Once rinsed, the tresses were blown dry using a blow dryer and round brush, and then flat-ironed using a ceramic iron at 400° F. for 5 passes. […]
The panelists were asked to rank the tresses from 1 (least frizz) to 6 (most frizz). The mode and average of the panelists' rankings were calculated for each to give the overall ranking.

## Isostearic Acid—DETA Tertiary Amine [Example 3a]
  frizz control, conclusion in words: resisted frizz the best; also recorded: aids in frizz control
